Data: patent US8299271B2, “Solid tartrate salts of DPP-IV inhibitors” (priority 2006, dated 2012)
Counter-ions that a name gives are not always drawn.

Key:
[1] = Chemical stability by HPLC; type: physicochemical
Method: In addition, the solutions before spraying and the spray dried product were analyzed for purity by HPLC using the following method. A Waters Symmetry C18 (3.0×150 mm, 3.5 um) column was used. […] Column temperature was 60° C., and the detection wavelength was 210 nm. The injection volume was 15 μL; flow rate was 1.0 mL/minute for a run time of 70 minutes. The gradient was as follows: Chemical Stability. Chemical stability was determined using HPLC. […] The chemical stability of the tartrate salt and the free base was also determined after one and three months at 25° C., 40° C. and 60° C.

[2] = Salt preparation: isolation of solid salts of the pyrrolidine compound; type: physicochemical; details: acid plus free base in IPA, filtration, MTBE
[3] = Physical stability in humidity chambers
Description: Physical Stability in Humidity Chambers. […] Samples were weighed hourly at first, and then on daily intervals.

[4] = Chemical stability by HPLC; type: physicochemical; details: 45% RH for two months
12 Month Stability Study = type: physicochemical; set-up: Water: unit not given beside the values; details: for decomposition on storage: 25° C.
[5] = 3 months at 40° C., listed as Tartrate
[6] = 12 months, T = 25° C., RH = 60%

O=C(CN[C@@H]1CCNC1)N1CCC[C@H]1B(O)O [Free Base, (2R)-1-{7-[(9R)-pyrrolidin-9-ylamino]-acetyl}-pyrrolidine-2-boronic acid]
Assay (%) ([1]; 1 month at 40° C.): 97% | Total Impurities (%) ([1]; 1 month at 40° C.): 15.4% | Assay (%) ([1]; 3 months at 40° C.): 50% | Total Impurities (%) ([1]; 3 months at 40° C.): 29.6% | Assay (%) ([1]; Initial): 96% | Total Impurities (%) ([1]; Initial): 7.6%

O=C(O)[C@@H](O)[C@H](O)C(=O)O [D-tartrate]
Comments (outcome of salt preparation) ([2]; listed as D-Tartaric Acid): Good filterable solid

citrate
stability at 63% RH ([3]; 63% RH): stable | stability when submitted to 75% relative humidity ([3]; 75% RH): not stable | Comments (outcome of salt preparation) [2]: Good filterable solid

O=C(CN[C@@H]1CCNC1)N1CCC[C@H]1B(O)O [L-tartrate salt, (2R)-1-{7-[(9R)-pyrrolidin-9-ylamino]-acetyl}-pyrrolidine-2-boronic acid]
change in the purity (HPLC) [4]: Little or no change | solubility in water and alcohols: > 2000 mg/mL | hygroscopicity [3]: moderately hygroscopic | processability of the solid ([3]; 63% relative humidity and room temperature for two months): remained a processable solid | physical behaviour of the solid at ambient conditions ([3]; ambient conditions): remains a processable solid | flow properties ([3]; open container, room temperature, 45% RH, two months): maintained good flow properties | processability of the solid ([3]; several days at ambient temperature, relative humidity of 75%): remained a processable solid | Assay (%) ([1]; 1 month at 60° C.): 100% | Total Impurities (%) ([1]; 1 month at 60° C.): 5.8% | Assay (%) ([1]; 3 months at 25° C.): 99% | Total Impurities (%) ([1]; 3 months at 25° C.): 5.7% | Assay (%) [1, 5]: 97% | Total Impurities (%) [1, 5]: 5.9% | Assay (%) ([1]; 3 months at 60° C.): 92% | Total Impurities (%) ([1]; 3 months at 60° C.): 7.4% | Assay (%) ([1]; Initial, listed as Tartrate): 99% | Total Impurities (%) ([1]; Initial, listed as Tartrate): 6.5% | Assay (HPLC) (12 Month Stability Study; 1 month, T = 5° C., RH = N/A): 105.7 | Purity (HPLC) (12 Month Stability Study; 1 month, T = 5° C., RH = N/A): 98.1 | Water (12 Month Stability Study; 1 month, T = 5° C., RH = N/A): 9.8 | Assay (HPLC) (12 Month Stability Study; 1 month, T = 25° C., RH = 60%): 105.7 | Purity (HPLC) (12 Month Stability Study; 1 month, T = 25° C., RH = 60%): 98.1 | Water (12 Month Stability Study; 1 month, T = 25° C., RH = 60%): 9.9 | Assay (HPLC) (12 Month Stability Study; 1 month, T = 40° C., RH = 75%): 106.0 | Purity (HPLC) (12 Month Stability Study; 1 month, T = 40° C., RH = 75%): 98.2 | Water (12 Month Stability Study; 1 month, T = 40° C., RH = 75%): 10.0 | Assay (HPLC) (12 Month Stability Study; 3 months, T = 5° C., RH = N/A): 106.2 | Purity (HPLC) (12 Month Stability Study; 3 months, T = 5° C., RH = N/A): 98.0 | Water (12 Month Stability Study; 3 months, T = 5° C., RH = N/A): 9.6 | Assay (HPLC) (12 Month Stability Study; 3 months, T = 25° C., RH = 60%): 106.7 | Purity (HPLC) (12 Month Stability Study; 3 months, T = 25° C., RH = 60%): 98.1 | Water (12 Month Stability Study; 3 months, T = 25° C., RH = 60%): 9.4 | Assay (HPLC) (12 Month Stability Study; 3 months, T = 40° C., RH = 75%): 105.3 | Purity (HPLC) (12 Month Stability Study; 3 months, T = 40° C., RH = 75%): 97.9 | Water (12 Month Stability Study; 3 months, T = 40° C., RH = 75%): 9.2 | decomposition on storage (12 Month Stability Study; 6 months at 75% RH): no detectable decomposition | Assay (HPLC) (12 Month Stability Study; 6 months, T = 5° C., RH = N/A): 104.6 | Purity (HPLC) (12 Month Stability Study; 6 months, T = 5° C., RH = N/A): 97.9 | Water (12 Month Stability Study; 6 months, T = 5° C., RH = N/A): 8.9 | Assay (HPLC) (12 Month Stability Study; 6 months, T = 25° C., RH = 60%): 105.9 | Purity (HPLC) (12 Month Stability Study; 6 months, T = 25° C., RH = 60%): 97.9 | Water (12 Month Stability Study; 6 months, T = 25° C., RH = 60%): 9.3 | Assay (HPLC) (12 Month Stability Study; 6 months, T = 40° C., RH = 75%): 105.6 | Purity (HPLC) (12 Month Stability Study; 6 months, T = 40° C., RH = 75%): 97.7 | Water (12 Month Stability Study; 6 months, T = 40° C., RH = 75%): 9.5 | Assay (HPLC) (12 Month Stability Study; 9 months, T = 5° C., RH = N/A): 106.7 | Purity (HPLC) (12 Month Stability Study; 9 months, T = 5° C., RH = N/A): 97.8 | Water (12 Month Stability Study; 9 months, T = 5° C., RH = N/A): 9.1 | Assay (HPLC) (12 Month Stability Study; 9 months, T = 25° C., RH = 60%): 107.3 | Purity (HPLC) (12 Month Stability Study; 9 months, T = 25° C., RH = 60%): 97.8 | Water (12 Month Stability Study; 9 months, T = 25° C., RH = 60%): 9.0 | decomposition on storage (12 Month Stability Study; 12 months at 60% RH): no detectable decomposition | Assay (HPLC) (12 Month Stability Study; 12 months, T = 5° C., RH = N/A): 107.8 | Purity (HPLC) (12 Month Stability Study; 12 months, T = 5° C., RH = N/A): 98.0 | Water (12 Month Stability Study; 12 months, T = 5° C., RH = N/A): 9.3 | Assay (HPLC) (12 Month Stability Study; [6]): 107.7 | Purity (HPLC) (12 Month Stability Study; [6]): 97.9 | Water (12 Month Stability Study; [6]): 9.3 | change in chemical purity (12 Month Stability Study; any of the conditions tested, 12 month study): substantially no change | Assay (HPLC) (12 Month Stability Study; time = 0): 105.1 | Purity (HPLC) (12 Month Stability Study; time = 0): 98.3 | Water (12 Month Stability Study; time = 0): 10.4
